Data reported in ChEMBL document CHEMBL5385861, “Development of novel hydrazidoarylaminopyrimidine-based BTK/FLT3 dual inhibitors with potent in vivo anti-hematological malignancies effects” (Eur J Med Chem, 2023).
The source made the active and inactive calls. No cut-off for these calls is given here.

Legend:
K562 [1] = test: Potency index, ratio of ibrutinib IC50 to test compound IC50 for antiproliferative activity against human K562 cells; type: functional
[2] = target: Receptor-type tyrosine-protein kinase FLT3 (Homo sapiens, UniProt P36888); test: Inhibition of FLT3 (unknown origin) incubated for 40 mins by radiometric kinase assay
Receptor-type tyrosine-protein kinase FLT3, sequence (P36888 whole entry): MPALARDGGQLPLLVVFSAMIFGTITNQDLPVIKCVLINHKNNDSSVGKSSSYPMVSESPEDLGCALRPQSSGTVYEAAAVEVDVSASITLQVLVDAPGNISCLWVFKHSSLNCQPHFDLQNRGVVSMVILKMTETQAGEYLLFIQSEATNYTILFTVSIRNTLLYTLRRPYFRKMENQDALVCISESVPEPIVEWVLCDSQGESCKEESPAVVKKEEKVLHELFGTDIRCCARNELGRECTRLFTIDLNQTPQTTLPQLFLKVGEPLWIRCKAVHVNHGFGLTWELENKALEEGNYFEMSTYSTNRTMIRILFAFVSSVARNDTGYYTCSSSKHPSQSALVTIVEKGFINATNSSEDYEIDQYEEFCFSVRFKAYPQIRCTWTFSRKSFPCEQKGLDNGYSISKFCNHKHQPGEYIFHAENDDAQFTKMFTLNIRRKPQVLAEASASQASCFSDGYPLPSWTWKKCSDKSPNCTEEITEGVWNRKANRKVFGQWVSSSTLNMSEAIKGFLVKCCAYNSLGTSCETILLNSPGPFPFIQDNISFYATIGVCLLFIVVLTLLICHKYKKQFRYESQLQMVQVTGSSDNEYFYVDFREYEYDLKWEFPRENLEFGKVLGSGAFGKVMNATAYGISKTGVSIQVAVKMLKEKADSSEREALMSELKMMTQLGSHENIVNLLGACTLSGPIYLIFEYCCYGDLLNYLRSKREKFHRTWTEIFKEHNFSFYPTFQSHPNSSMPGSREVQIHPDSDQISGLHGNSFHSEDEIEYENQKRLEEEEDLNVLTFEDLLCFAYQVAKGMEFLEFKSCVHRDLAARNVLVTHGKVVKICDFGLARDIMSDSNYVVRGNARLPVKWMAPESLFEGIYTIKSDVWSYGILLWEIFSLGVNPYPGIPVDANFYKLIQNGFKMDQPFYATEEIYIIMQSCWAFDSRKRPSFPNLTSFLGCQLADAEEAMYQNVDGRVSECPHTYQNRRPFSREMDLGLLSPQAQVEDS

K562 [3] = test: Potency index, ratio of spebrutinib IC50 to test compound IC50 for antiproliferative activity against human K562 cells; type: functional
[4] = target: Dual specificity mitogen-activated protein kinase kinase 1 (Homo sapiens) (UniProt Q02750); test: Inhibition of MEK1 (unknown origin) at 0.2 uM incubated for 40 mins by radiometric kinase assay relative to control
Dual specificity mitogen-activated protein kinase kinase 1 (Homo sapiens), sequence (Q02750 whole entry): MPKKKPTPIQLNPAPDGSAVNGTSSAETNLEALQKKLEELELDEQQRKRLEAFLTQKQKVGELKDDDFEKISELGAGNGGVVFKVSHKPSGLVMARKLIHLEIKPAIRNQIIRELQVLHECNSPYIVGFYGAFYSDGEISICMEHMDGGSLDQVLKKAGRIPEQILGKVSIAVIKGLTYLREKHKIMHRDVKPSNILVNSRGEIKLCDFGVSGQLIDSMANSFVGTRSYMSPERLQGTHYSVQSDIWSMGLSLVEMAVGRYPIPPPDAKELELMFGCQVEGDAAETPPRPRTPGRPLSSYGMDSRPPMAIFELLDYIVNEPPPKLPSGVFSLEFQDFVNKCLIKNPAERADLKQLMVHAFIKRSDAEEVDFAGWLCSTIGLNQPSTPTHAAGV

MV4-11 [5] = test: Antitumor activity against human MV4-11 cells xenografted NOD/SCID mouse assessed as reduction in tumor weight at 20 mg/kg, ip administered once daily for 21 days; type: functional; conditions: time 21 day
JeKo-1 [6] = test: Potency index, ratio of spebrutinib IC50 to test compound IC50 for antiproliferative activity against human JeKo-1 cells; type: functional
[7] = target: Calcium/calmodulin-dependent protein kinase kinase 2 (Homo sapiens) (UniProt Q96RR4); test: Inhibition of CaMKK2 (unknown origin) at 0.2 uM incubated for 40 mins by radiometric kinase assay relative to control
Calcium/calmodulin-dependent protein kinase kinase 2 (Homo sapiens), sequence (Q96RR4 2-588 limits assumed): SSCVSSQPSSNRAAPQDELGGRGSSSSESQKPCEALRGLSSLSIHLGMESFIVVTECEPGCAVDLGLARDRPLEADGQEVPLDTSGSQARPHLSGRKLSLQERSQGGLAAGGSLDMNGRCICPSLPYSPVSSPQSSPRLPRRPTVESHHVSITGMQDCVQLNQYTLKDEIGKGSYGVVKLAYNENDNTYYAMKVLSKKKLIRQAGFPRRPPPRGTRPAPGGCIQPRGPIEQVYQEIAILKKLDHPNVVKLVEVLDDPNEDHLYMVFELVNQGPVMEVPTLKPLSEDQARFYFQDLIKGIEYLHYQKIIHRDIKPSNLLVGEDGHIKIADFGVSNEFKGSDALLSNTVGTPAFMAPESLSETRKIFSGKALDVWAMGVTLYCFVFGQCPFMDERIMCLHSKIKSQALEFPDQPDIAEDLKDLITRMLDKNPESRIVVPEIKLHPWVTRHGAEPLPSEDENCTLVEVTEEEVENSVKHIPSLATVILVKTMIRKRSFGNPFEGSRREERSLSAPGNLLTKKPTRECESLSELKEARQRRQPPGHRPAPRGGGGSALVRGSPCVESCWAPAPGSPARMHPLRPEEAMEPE

[8] = Acute toxicity in ip dosed ICR mouse assessed as lethal dose measured for 2 weeks; type: organism-based; conditions: in vivo
[9] = target: CDK6/cyclin D3 (Homo sapiens) (UniProt P30281+Q00534); test: Inhibition of CDK6/cyclinD3 (unknown origin) at 0.2 uM incubated for 40 mins by radiometric kinase assay relative to control; type: protein-complex assay
MV4-11 [10] = test: Antitumor activity against human MV4-11 cells xenografted in NOD/SCID mouse assessed as tumor growth inhibition at 20 mg/kg ip administered once daily for 21 days; type: functional; conditions: MV4-11, 504 h, time 21 day, read-out: TGI
[11] = target: Tyrosine-protein kinase HCK (Homo sapiens) (UniProt P08631); test: Inhibition of HCK (unknown origin) at 0.2 uM incubated for 40 mins by radiometric kinase assay relative to control
Tyrosine-protein kinase HCK (Homo sapiens), sequence (P08631 2-526 limits assumed): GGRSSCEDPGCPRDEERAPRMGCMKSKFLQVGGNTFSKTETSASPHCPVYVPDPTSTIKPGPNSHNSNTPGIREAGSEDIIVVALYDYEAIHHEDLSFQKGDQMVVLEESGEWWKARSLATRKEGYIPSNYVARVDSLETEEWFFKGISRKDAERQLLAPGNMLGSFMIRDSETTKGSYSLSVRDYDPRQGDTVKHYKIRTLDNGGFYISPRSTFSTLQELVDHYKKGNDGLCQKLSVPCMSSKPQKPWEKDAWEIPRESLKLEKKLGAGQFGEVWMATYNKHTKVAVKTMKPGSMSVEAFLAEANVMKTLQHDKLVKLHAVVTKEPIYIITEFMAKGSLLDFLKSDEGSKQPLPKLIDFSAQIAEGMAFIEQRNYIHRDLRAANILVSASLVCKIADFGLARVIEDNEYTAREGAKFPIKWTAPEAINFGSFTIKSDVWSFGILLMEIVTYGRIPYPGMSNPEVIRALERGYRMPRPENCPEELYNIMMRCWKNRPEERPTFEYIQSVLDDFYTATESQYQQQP

[12] = target: Mitogen-activated protein kinase 8 (Homo sapiens) (UniProt P45983); test: Inhibition of JNK1alpha1 (unknown origin) at 0.2 uM incubated for 40 mins by radiometric kinase assay relative to control
Mitogen-activated protein kinase 8 (Homo sapiens), sequence (P45983 whole entry): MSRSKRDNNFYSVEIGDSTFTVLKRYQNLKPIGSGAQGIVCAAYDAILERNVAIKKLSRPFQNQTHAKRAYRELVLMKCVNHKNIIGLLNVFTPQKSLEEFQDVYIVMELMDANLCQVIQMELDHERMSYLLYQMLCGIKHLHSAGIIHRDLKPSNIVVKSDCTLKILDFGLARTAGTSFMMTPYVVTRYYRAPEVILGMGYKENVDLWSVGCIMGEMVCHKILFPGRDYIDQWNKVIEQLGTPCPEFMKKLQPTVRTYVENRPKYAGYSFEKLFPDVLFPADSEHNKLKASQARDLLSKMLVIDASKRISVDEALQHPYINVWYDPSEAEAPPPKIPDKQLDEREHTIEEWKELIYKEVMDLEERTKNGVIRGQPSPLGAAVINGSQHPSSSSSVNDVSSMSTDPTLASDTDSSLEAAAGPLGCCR

[13] = target: Serine/threonine-protein kinase PLK2 (Homo sapiens) (UniProt Q9NYY3); test: Inhibition of SNK (unknown origin) at 0.2 uM incubated for 40 mins by radiometric kinase assay relative to control
Serine/threonine-protein kinase PLK2 (Homo sapiens), sequence (Q9NYY3 whole entry, looked up): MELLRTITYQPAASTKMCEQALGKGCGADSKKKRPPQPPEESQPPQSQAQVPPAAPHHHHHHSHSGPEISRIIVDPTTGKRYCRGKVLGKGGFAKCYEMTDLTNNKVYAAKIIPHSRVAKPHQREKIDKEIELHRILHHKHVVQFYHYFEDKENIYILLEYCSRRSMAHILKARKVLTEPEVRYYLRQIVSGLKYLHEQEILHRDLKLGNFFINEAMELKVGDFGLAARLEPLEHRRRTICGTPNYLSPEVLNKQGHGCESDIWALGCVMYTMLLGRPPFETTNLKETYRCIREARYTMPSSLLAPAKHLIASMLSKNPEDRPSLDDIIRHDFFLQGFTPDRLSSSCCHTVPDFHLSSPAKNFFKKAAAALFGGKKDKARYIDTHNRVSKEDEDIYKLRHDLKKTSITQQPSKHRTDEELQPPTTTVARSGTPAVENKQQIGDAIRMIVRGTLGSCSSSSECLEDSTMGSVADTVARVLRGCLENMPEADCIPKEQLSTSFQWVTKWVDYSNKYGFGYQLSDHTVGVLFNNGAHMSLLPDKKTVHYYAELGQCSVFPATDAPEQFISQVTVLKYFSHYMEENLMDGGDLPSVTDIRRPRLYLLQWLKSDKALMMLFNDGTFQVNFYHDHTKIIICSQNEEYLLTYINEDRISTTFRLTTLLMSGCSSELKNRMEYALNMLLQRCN

JeKo-1 [14] = test: Induction of apoptosis in human JeKo-1 cells assessed as necrotic cells at 30 nM incubated for 72 hrs by Annexin VFITC/PI staining based flow cytometry analysis (reference value: 0.67%); type: functional
[15] = target: Serine/threonine-protein kinase mTOR (Homo sapiens) (UniProt P42345); test: Inhibition of mTOR (unknown origin) at 0.2 uM incubated for 40 mins by radiometric kinase assay relative to control
MOLT-4 [16] = test: cells; conditions: Homo sapiens, MOLT-4, 72 h
Description: Antiproliferative activity against human MOLT-4 cells assessed as inhibition of cell growth incubated for 72 hrs by CCK8 assay

JeKo-1 [17] = test: Antitumor activity against human JeKo-1 cells xenografted NOD/SCID mouse assessed as tumor growth inhibition at 25 mg/kg, ip measured for 16 days; type: functional; conditions: JeKo-1, 384 h, time 16 day, read-out: TGI
[18] = target: Mitogen-activated protein kinase 13 (Homo sapiens) (UniProt O15264); test: Inhibition of SAPK4 (unknown origin) at 0.2 uM incubated for 40 mins by radiometric kinase assay relative to control
Mitogen-activated protein kinase 13 (Homo sapiens), sequence (O15264 whole entry): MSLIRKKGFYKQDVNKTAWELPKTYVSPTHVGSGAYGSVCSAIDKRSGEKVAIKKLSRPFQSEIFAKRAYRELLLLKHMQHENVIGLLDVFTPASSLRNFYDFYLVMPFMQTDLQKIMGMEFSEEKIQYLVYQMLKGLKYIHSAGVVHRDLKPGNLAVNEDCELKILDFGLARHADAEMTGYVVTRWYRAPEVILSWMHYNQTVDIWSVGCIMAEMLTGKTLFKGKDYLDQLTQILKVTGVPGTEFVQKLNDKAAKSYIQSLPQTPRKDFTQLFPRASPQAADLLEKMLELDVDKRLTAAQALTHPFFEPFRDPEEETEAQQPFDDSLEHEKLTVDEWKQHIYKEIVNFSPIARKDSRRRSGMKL

JeKo-1 [19] = test: Induction of apoptosis in human JeKo-1 cells assessed as early apoptotic cells at 750 nM incubated for 72 hrs by Annexin VFITC/PI staining based flow cytometry analysis (reference value: 3.10%); type: functional
JeKo-1 [20] = test: Induction of apoptosis in human JeKo-1 cells assessed as upregulation of Bax protein expression at 30 to 750 nM incubated for 72 hrs by Western blot analysis; type: functional, cell-based; conditions: dose 30-750 nM
[21] = target: Dual specificity mitogen-activated protein kinase kinase 6 (Homo sapiens) (UniProt P52564); test: Inhibition of MKK6 (unknown origin) at 0.2 uM incubated for 40 mins by radiometric kinase assay relative to control
Dual specificity mitogen-activated protein kinase kinase 6 (Homo sapiens), sequence (P52564 whole entry): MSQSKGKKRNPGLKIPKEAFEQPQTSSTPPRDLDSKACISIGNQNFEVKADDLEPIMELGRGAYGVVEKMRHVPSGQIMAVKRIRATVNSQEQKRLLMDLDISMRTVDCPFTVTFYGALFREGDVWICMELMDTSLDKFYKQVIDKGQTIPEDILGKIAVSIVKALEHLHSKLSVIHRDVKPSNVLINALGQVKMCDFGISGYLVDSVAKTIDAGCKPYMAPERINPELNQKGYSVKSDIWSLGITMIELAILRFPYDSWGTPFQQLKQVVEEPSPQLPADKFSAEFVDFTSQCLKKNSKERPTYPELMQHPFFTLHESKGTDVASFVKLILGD

[22] = target: MAP kinase-activated protein kinase 2 (Homo sapiens) (UniProt P49137); test: Inhibition of MAPKAP-K2 (unknown origin) at 0.2 uM incubated for 40 mins by radiometric kinase assay relative to control
MAP kinase-activated protein kinase 2 (Homo sapiens), sequence (P49137 whole entry, looked up): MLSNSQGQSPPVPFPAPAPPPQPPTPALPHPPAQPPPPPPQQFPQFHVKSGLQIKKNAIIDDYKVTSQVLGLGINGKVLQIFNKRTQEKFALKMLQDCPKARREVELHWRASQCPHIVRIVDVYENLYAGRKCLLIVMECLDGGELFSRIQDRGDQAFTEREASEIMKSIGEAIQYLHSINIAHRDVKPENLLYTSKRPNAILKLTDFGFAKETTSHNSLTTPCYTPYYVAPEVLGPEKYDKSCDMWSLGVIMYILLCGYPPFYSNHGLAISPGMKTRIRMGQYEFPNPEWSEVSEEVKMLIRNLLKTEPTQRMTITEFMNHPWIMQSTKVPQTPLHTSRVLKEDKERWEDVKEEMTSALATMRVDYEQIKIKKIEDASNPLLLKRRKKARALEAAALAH

MV4-11 [23] = test: Antitumor activity against human MV4-11 cells xenografted in NOD/SCID mouse assessed as tumor growth inhibition at 10 mg/kg ip administered once daily for 21 days; type: functional; conditions: MV4-11, 504 h, time 21 day, read-out: TGI
[24] = target: Histone deacetylase (Homo sapiens) (UniProt Q13547+O15379+Q9UBN7+Q92769+Q9UQL6+Q8WUI4+Q9BY41+Q96DB2+P56524+Q9UKV0+Q969S8); test: Inhibition of HDAC (unknown origin) at 0.2 uM incubated for 40 mins by radiometric kinase assay relative to control; type: protein assay
[25] = target: Signal transducer and activator of transcription 5A (Homo sapiens) (UniProt P42229); test: Inhibition of STAT5 phosphorylation in human JeKo-1 cells incubated for 72 hrs by Western blot analysis; type: cell-based; conditions: dose 30-750 nM
JeKo-1 [26] = test: Induction of apoptosis in human JeKo-1 cells assessed as viable cells at 30 nM incubated for 72 hrs by Annexin VFITC/PI staining based flow cytometry analysis (reference value: 94.81%); type: functional; conditions: read-out: Activity
MV4-11 [27] = test: cells; conditions: Homo sapiens, MV4-11, 72 h
[28] = target: Vascular endothelial growth factor receptor 3 (Homo sapiens) (UniProt P35916); test: Inhibition of FLT4 (unknown origin) at 0.2 uM incubated for 40 mins by radiometric kinase assay relative to control
JeKo-1 [29] = test: Induction of apoptosis in human JeKo-1 cells assessed as upregulation of p53 protein expression incubated for 72 hrs by Western blot analysis; type: functional, cell-based; conditions: dose 30-750 nM
[30] = Acute toxicity in ICR mouse assessed as animal survival at 300 mg/kg, ip measured for 2 weeks; type: organism-based; conditions: in vivo
[31] = Acute toxicity in ip dosed ICR mouse assessed as effect on RBC level at 200 mg/kg, ip measured for 2 weeks; type: organism-based, Erythrocyte; conditions: in vivo, 336 h
MOLT-4 [32] = test: Potency index, ratio of spebrutinib IC50 to test compound IC50 for antiproliferative activity against human MOLT-4 cells; type: functional
[33] = Acute toxicity in ICR mouse assessed as animal survival at 468.8 mg/kg, ip measured for 2 weeks; type: organism-based; conditions: in vivo

CN1CCN(c2ccc(Nc3ncc(F)c(Nc4ccccc4C(=O)NN)n3)cc2)CC1
Ratio IC50 (K562 [1]): 6
IC50 [2]: 12 nM
Ratio IC50 (K562 [3]): 8
inhibition [4]: -3%
Activity (MV4-11 [5]): 0.08 g
Ratio IC50 (JeKo-1 [6]): 8
inhibition [7]: 27%
LD50 at 336 h [8]: 343 mg/kg
inhibition [9]: 23%
inhibition in vivo at 20 mg/kg (MV4-11 [10]): 100%
inhibition [11]: 27%
inhibition [12]: 27%
inhibition [13]: 43%
Activity (JeKo-1 [14]): 0.22%
inhibition [15]: -7%
IC50 (MOLT-4 [16]): 11 nM
inhibition in vivo at 25 mg/kg (JeKo-1 [17]): 67%
inhibition [18]: 3%
Activity (JeKo-1 [19]): 37.89%
Activity (JeKo-1 [20]): Active
inhibition [21]: 10%
inhibition [22]: 6%
inhibition in vivo at 10 mg/kg (MV4-11 [23]): 74.2%
inhibition [24]: 5%
inhibition [25]: Dose-Dependent Effect
viability at 0.03 µM (JeKo-1 [26]): 87.5%
IC50 (MV4-11 [27]): 3 nM
inhibition [28]: 100%
Activity (JeKo-1 [29]): Dose-Dependent Effect
survival at 336 h [30]: 60%
Activity [31]: Toxic
Ratio IC50 (MOLT-4 [32]): 8
survival at 336 h [33]: 10%
